Values joined by “and” are separate entries in the source; they are usually repeats but may differ in a detail not shown here. Equal values may be shown once.
Key:
MRGPRX4 = target: T1, MRGPRX4 (Homo sapiens, UniProt Q96LA9); assay: Ca2+ imaging and concentration-Ca2+ response (EC50) in HEK293 cells expressing MRGPRX4; format: cell-based; details: for Ca2+ response (concentration-response curve): MRGPRX4, triplicate wells (Fig 2I)
T1 construct: expressed in transfected cells
Protocol: (§1) All cultured cells were maintained in DMEM supplemented with 10% FBS and 1% Penicillin/Streptomycin at 37°C, 5% CO2. All data included were generated from cells tested for mycoplasma and found to be negative. Cells were imaged in calcium imaging buffer (CIB; 10 mM HEPES, 1.2 mM NaHCO3, 130 mM NaCl, 3 mM KCl, 2.5 mM CaCl2, 0.6 mM MgCl2, 20 mM glucose, and 20 mM sucrose at pH 7.4 and 290–300 mOsm). To monitor changes in intracellular [Ca^2+] ([Ca^2+]i), cells were loaded with either Fura 2-AM (HEK293 cells) or Fluo 4-AM (DRG neurons and mast cells) for 30 min in the dark at 37°C in CIB just prior to imaging. With Fura 2-AM, emission at 510 nm was monitored from excitation at both 340 nm and 380 nm. With Fluo 4-AM, emission at 520 nm was monitored from excitation at 488 nm. Cells were identified as responding if the intracellular [Ca^2+] rose by either 50% compared to baseline or 50% compared to the [Ca^2+]i change assayed during addition of 50 mM KCl (neurons only). Damaged, detached, high-baseline, and motion-activated cells were excluded from analysis.
(§2) In initial screens, HEK293 cells stably expressing the murine G-protein alpha-subunit Gα15, a unique Gα protein that non-selectively couples a large variety of GPCRs to phospholipase C ^30, were plated on poly-D-lysine-coated coverslips and transiently transfected with constructs encoding the MRGRPR of interest. 12–24 hr later, cells were loaded with the Fura 2-AM. Unless otherwise specified, compounds were perfused into the imaging chamber for approximately thirty seconds after a baseline period was established. Response was then monitored at 5 s intervals for an additional 60 s.
(§3) HEK293 cells stably expressing either MRGPRA1, MRGPRX4, and MRGRPC11 were seeded in poly-D-lysine-coated 96-well plates at 10,000 cells/well. Cells were loaded with Fura 2–AM, washed twice, and maintained in CIB. Haem metabolites were freshly dissolved in DMSO in dim light and then diluted into a buffer comprised of 20 mM Tris and 150 mM NaCl at pH 8.8. Potential changes in pH were evaluated prior to each experiment. EC50 values were determined from dose-responses performed in triplicate, repeated 2–4 times. To determine potential antagonism by QWF against bilirubin, cells were treated with varying doses of QWF for 1 min in CIB prior to application of agonist.
(§4) HEK293 stable cell lines expressing GFP-tagged MRGPRA3, MRGPRC11, MRGPRD, MRGPRX1, and MRGPRX2 were generated in previously described reports ([Liu et al., 2009]; [Liu et al., 2012]; [McNeil et al., 2015]). Briefly, plasmids containing the receptor of interest were transfected into HEK cells using Lipofectamine 3000. After 3 days, cells were then selected using 0.5 mg/mL G418. After 3 weeks, monoclonal colonies were established and each the highest expressing clones were identified. For this study, Mrgpra1 and MRGPRX4 were inserted into pEGFP-N1 and transfected into HEK293 cells. MRGPR-positive cells were selected using 0.5 mg/mL G418 for three weeks, after which GFP-positive cells were sorted by FACS and monoclonally expanded. Two lines expressing similar levels of MRGPRA1 and MRGPRX4, as measured by GFP fluorescence, were selected for study.

MRGPRA1 [1] = target: T2, MRGPRA1 (Mus musculus, UniProt Q91WW5); assay: Ca2+ imaging and concentration-Ca2+ response (EC50) in HEK293 cells expressing MRGPRA1; format: cell-based; details: for Calcium response / activation of MRGPRA1-expressing cells: 50 µM bilirubin, 30 µM FMRF; for Ca2+ response (concentration-response curve): MRGPRA1, triplicate wells (Fig 2D)
T2 construct: expressed in transfected cells
T2 sequence (Q91WW5 1-304): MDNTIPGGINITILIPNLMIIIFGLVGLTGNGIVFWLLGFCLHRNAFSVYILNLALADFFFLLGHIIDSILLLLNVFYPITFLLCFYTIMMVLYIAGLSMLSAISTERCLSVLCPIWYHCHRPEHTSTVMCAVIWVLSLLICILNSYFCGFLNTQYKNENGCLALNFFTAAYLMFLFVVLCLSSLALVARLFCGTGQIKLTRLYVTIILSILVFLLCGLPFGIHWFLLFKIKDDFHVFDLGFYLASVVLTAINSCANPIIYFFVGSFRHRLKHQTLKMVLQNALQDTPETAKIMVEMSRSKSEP
Protocol: as §1, §2, §3, §4

MRGPRA1 [2] = target: T2, MRGPRA1; assay: Microscale thermophoresis binding to MRGPRA1; parameters: Transformed binding isotherm (mean of three experiments): unit not given here; details: for Transformed binding isotherm (mean of three experiments): MRGPRA1 (Fig 2E); for Binding to MRGPRA1: microscale thermophoresis
Protocol: Binding isotherms for MRGPRA1, MRGPRX4, and MRGRPC11 towards various ligands were determined by microscale thermophoresis with the NanoTemper monolith NT.115 instrument ([Duhr and Braun, 2006]). Ligands were pre-incubated with 10 µM of the GFP-tagged receptor of interest for 5 min at room temperature in binding buffer (20 mM Tris and 150 mM NaCl at pH 8.8). Receptors were crudely purified as a membrane fraction from cells stably expressing the receptor ([Vasavda et al., 2017]). Haem metabolites were freshly dissolved in 0.1 M NaOH in dim light and then diluted into assay buffer. Lyophilized BAM8-22 was dissolved in binding buffer. The pH of each ligand was evaluated prior to incubation with a receptor. Samples were loaded into NT.115 Hydrophobic-Treated Capillaries from NanoTemper. Microscale thermophoretic experiments were executed using 20% LED power and 15% MST power. KDs were calculated using the law of mass action with data from three independent experiments. Binding between bilirubin and receptors was evaluated purely thermophoretically, whereas binding between BAM8-22 and MRGPRC11 was evaluated by T-Jump. Samples with dramatic deviations in initial fluorescence were excluded.

T1 sequence (Q96LA9 whole entry): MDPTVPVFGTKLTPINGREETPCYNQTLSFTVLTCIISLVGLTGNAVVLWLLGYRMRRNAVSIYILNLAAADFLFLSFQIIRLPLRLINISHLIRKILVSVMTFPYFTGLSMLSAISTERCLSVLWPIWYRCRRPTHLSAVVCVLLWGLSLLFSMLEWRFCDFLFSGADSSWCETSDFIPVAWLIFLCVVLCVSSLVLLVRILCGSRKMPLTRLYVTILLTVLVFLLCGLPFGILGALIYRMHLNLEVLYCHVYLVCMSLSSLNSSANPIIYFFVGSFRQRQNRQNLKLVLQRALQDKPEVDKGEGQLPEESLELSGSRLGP

Row | Calcium response / activation of MRGPRX4-expressing cells (MRGPRX4) | Calcium response / activation of MRGPRA1-expressing cells (MRGPRA1 [1]) | Transformed binding isotherm (mean of three experiments) (MRGPRA1 [2]; [Ligand] 1.221e-7 M) | Transformed binding isotherm (mean of three experiments) (MRGPRA1 [2]; [Ligand] 2.441e-7 M) | Transformed binding isotherm (mean of three experiments) (MRGPRA1 [2]; [Ligand] 4.883e-7 M) | Transformed binding isotherm (mean of three experiments) (MRGPRA1 [2]; [Ligand] 9.766e-7 M) | Transformed binding isotherm (mean of three experiments) (MRGPRA1 [2]; [Ligand] 1.9531e-6 M) | Transformed binding isotherm (mean of three experiments) (MRGPRA1 [2]; [Ligand] 3.9063e-6 M) | Transformed binding isotherm (mean of three experiments) (MRGPRA1 [2]; [Ligand] 7.8125e-6 M) | Transformed binding isotherm (mean of three experiments) (MRGPRA1 [2]; [Ligand] 1.5625e-5 M) | Transformed binding isotherm (mean of three experiments) (MRGPRA1 [2]; [Ligand] 3.125e-5 M) | Transformed binding isotherm (mean of three experiments) (MRGPRA1 [2]; [Ligand] 6.25e-5 M) | Transformed binding isotherm (mean of three experiments) (MRGPRA1 [2]; [Ligand] 0.000125 M) | Transformed binding isotherm (mean of three experiments) (MRGPRA1 [2]; [Ligand] 0.00025 M) | Transformed binding isotherm (mean of three experiments) (MRGPRA1 [2]; [Ligand] 0.0005 M) | Compound | Binding to MRGPRA1 (MRGPRA1 [2]) | also measured
1 | activated MRGPRX4 | activated MRGPRA1-expressing cells | 8.864 | 12.0246 | -13.1442 | 10.2399 | -8.006 | -10.5584 | -9.562 | -5.789 | -4.24 | 37.7812 | 5.5559 | 6.134 | 25.273 | C=CC1=C(C)/C(=C/c2[nH]c(Cc3[nH]c(/C=C4\NC(=O)C(C)=C4C=C)c(C)c3CCC(=O)NCCS(=O)(=O)O)c(CCC(=O)NCCS(=O)(=O)O)c2C)NC1=O [conjugated bilirubin, bilirubin ditaurate] | lower affinity than unconjugated bilirubin | Ca2+ response (concentration-response curve) (MRGPRX4; [Ligand] 3.90625e-6 M): 1.434 and 1.4137 and 1.361; Ca2+ response (concentration-response curve) (MRGPRX4; [Ligand] 7.8125e-6 M): 1.454 and 1.384 and 1.354; Ca2+ response (concentration-response curve) (MRGPRX4; [Ligand] 1.5625e-5 M): 1.439 and 1.34 and 1.332; Ca2+ response (concentration-response curve) (MRGPRX4; [Ligand] 3.125e-5 M): 1.623 and 1.449 and 1.378; Ca2+ response (concentration-response curve) (MRGPRX4; [Ligand] 6.25e-5 M): 1.761 and 1.61 and 1.52; Ca2+ response (concentration-response curve) (MRGPRX4; [Ligand] 0.000125 M): 1.756 and 1.629 and 1.666; Ca2+ response (concentration-response curve) (MRGPRX4; [Ligand] 0.00025 M): 1.735 and 1.736 and 1.6528; Ca2+ response (concentration-response curve) (MRGPRX4; [Ligand] 0.0005 M): 1.775 and 1.779 and 1.74; Ca2+ response (concentration-response curve) (MRGPRA1 [1]; [Ligand] 7.8125e-6 M): 1.221 and 1.276 and 1.273; Ca2+ response (concentration-response curve) (MRGPRA1 [1]; [Ligand] 1.5625e-5 M): 1.253 and 1.283 and 1.252; Ca2+ response (concentration-response curve) (MRGPRA1 [1]; [Ligand] 3.125e-5 M): 1.222 and 1.225 and 1.221; Ca2+ response (concentration-response curve) (MRGPRA1 [1]; [Ligand] 6.25e-5 M): 1.19 and 1.186 and 1.177; Ca2+ response (concentration-response curve) (MRGPRA1 [1]; [Ligand] 0.000125 M): 1.212 and 1.254 and 1.214; Ca2+ response (concentration-response curve) (MRGPRA1 [1]; [Ligand] 0.00025 M): 1.3325 and 1.3437 and 1.301; Ca2+ response (concentration-response curve) (MRGPRA1 [1]; [Ligand] 0.0005 M): 1.4484 and 1.4326 and 1.424; Ca2+ response (concentration-response curve) (MRGPRA1 [1]; [Ligand] 0.001 M): 1.572 and 1.554 and 1.499; Transformed binding isotherm (mean of three experiments) (MRGPRA1 [2]; [Ligand] 0.001 M): 43.2348
2 | had no effect | failed to activate MRGPRA1 | 0 | 0 | 0 | 0 | 0 | 0 | 0 | 0 | 0 | 0 | 0 | 0 | 0 | hemin | did not bind | Transformed binding isotherm (mean of three experiments) (MRGPRA1 [2]; [Ligand] 3.05e-8 M): 0; Transformed binding isotherm (mean of three experiments) (MRGPRA1 [2]; [Ligand] 6.1e-8 M): 0
